Consider 4 molecules from patent publication US10858479B2, “Y-type discrete polyethylene glycol derivative and preparation method thereof” (JenKem Technology Co., Ltd. (Beijing), priority 2015, dated 2020).

The nature of data set [1]: Comparison test of dispersibility of cholesterol and cholesterol derivatives in water. The class given is physicochemical. Particulars: 20 mg in 50 mL water, 20° C. water bath, FIG. 7.
A short description of data set [2]: Comparison test of solubility of derivatives in water.
Procedure: 20.0 mg cholesterol derivative of (l) prepared in Example 7 was dispersed in 50 mL water, 5 mL was taken out therefrom and added with 1.5 mL water, the resulting mixture was placed in a 20° C. water bath, and shaken vigorously for 30 s every 5 min.
24.2 mg cholesterol derivative of mEG7-OH prepared in Example 8 was dispersed in 50 mL of water, 5 mL was taken out therefrom and added with 5 mL water, the resulting mixture was shaken vigorously for 30 s every 5 min.
111.0 mg the hexadecanol derivative of (1) prepared in Example 7 was dispersed in 25 μL of water and shaken vigorously for 30 s every 5 min.
112.9 mg the hexadecanol derivative of mEG7-OH prepared in Example 8 was dispersed in 50 μL of water and shaken vigorously for 30 s every 5 min.
101.3 mg the menthol derivative of mEG7-OH prepared in Example 8 was dispersed in 50 μL of water and vigorously shaken for 30 s every 5 min. After 30 min, the solution was turbid; another 50 μL of water was added, the resulting mixture was vigorously shaken for 30 s every 5 min.

The structures appear in SMILES notation. Read-outs that look alike come from different tables or passages of the source.

For the molecule `COCCOCCOCCOCCOCCOCCOCCOC(=O)O[C@H]1CC[C@@]2(C)C(=CC[C@H]3[C@@H]4CC[C@H]([C@H](C)CCCC(C)C)[C@@]4(C)CC[C@@H]32)C1` [cholesterol derivative of mEG7-OH], the “disperse state in water” value in data set [1] is on record as “white emulsion”.

Turning to `CC1CCC(C(C)C)C(O)C1` (centres unmarked) [menthol], the solubility in data set [2] and in data set [2] (listed as Menthol) was below 100 mg/100 g H2O each time.

As to `CCCCCCCCCCCCCCCCO` [hexadecanol], the solubility in data set [2] and in data set [2] (listed as Hexadecanol) was below 1 mg/100 g H2O each time.

Take `CC(C)CCC[C@@H](C)[C@H]1CC[C@H]2[C@@H]3CC=C4C[C@@H](O)CC[C@]4(C)[C@H]3CC[C@]12C` [cholesterol]: the “disperse state in water” value in data set [1] is reported as “completely insoluble”. Also, the solubility in data set [2] and in data set [2] (listed as Cholesterol) was below 0.2 mg/100 g H2O each time.
